From ChEMBL document CHEMBL3580659, “One-pot multicomponent synthesis of indole incorporated thiazolylcoumarins and their antibacterial, anticancer and DNA cleavage studies” (2015) come the findings set out here.

Each structure is given as a SMILES string. The source made the active and inactive calls. No cut-off for these calls is given here.

Assay [1] relates to Escherichia coli. Description: Induction of DNA cleavage of Escherichia coli pUC18 plasmid DNA at 50 ug/ml after 2 hrs by agarose gel elctrophoresis method.
Assay [2] relates to Escherichia coli. The assay can be described thus: Antibacterial activity against Escherichia coli assessed as bacterial growth inhibition at 50 ug/ml after 24 hrs by cup-plate agar diffusion method. In kind it is functional. Particulars: read-out: IZ.
A further assay deals with Bacillus subtilis. Description: Antibacterial activity against Bacillus subtilis assessed as bacterial growth inhibition at 50 ug/ml after 24 hrs by cup-plate agar diffusion method. The conditions noted are these: read-out: IZ. In kind it is functional.
Assay [3] concerns Escherichia coli. The assay can be described thus: Induction of DNA cleavage of Escherichia coli pUC18 plasmid DNA at 100 ug/ml after 2 hrs by agarose gel elctrophoresis method.

In the case of `CCn1cc(/C=N/Nc2nc(-c3cc4cc(Br)cc(Br)c4oc3=O)cs2)c2ccccc21`, the outcome with Escherichia coli [1] was Active. Further, the zone of inhibition at 50 µg/mL in the assay on Escherichia coli [2] and in the assay with Bacillus subtilis was 10 mm each time.
On to `Cc1[nH]c2ccccc2c1/C=N/Nc1nc(-c2cc3ccccc3oc2=O)cs1`, for which the outcome in the assay with Escherichia coli [1] was Active. Besides, the zone of inhibition at 50 µg/mL in the assay on Escherichia coli [2] amounted to 10 mm; in the assay with Bacillus subtilis, 13 mm.
For the molecule `Cc1[nH]c2ccccc2c1/C=N/Nc1nc(-c2cc3cc(Br)ccc3oc2=O)cs1`, the result with Escherichia coli [1] was Active. Moreover, the results for the zone of inhibition at 50 µg/mL in the assay with Escherichia coli [2] and in the assay on Bacillus subtilis were 12 mm and 10 mm, respectively.
Turning to `CCn1cc(/C=N/Nc2nc(-c3cc4c(ccc5ccccc54)oc3=O)cs2)c2ccccc21`, in the assay with Escherichia coli [3], the outcome was Active. For the same molecule, the zone of inhibition at 50 µg/mL in the assay with Escherichia coli [2] worked out at 12 mm; with Bacillus subtilis it was 15 mm.
As to `O=c1oc2ccccc2cc1-c1csc(N/N=C/c2c[nH]c3ccc(Br)cc23)n1`, the outcome with Escherichia coli [1] was Active. Besides, the values for the zone of inhibition at 50 µg/mL in the assay with Escherichia coli [2] and with Bacillus subtilis were 10 mm and 15 mm, respectively.
As for `Cc1[nH]c2ccccc2c1/C=N/Nc1nc(-c2cc3cc(Cl)ccc3oc2=O)cs1`, the outcome with Escherichia coli [1] was Active. The zone of inhibition at 50 µg/mL in the assay on Escherichia coli [2] is 6 mm; with Bacillus subtilis, 10 mm.
For `CCn1cc(/C=N/Nc2nc(-c3cc4cc(Br)ccc4oc3=O)cs2)c2ccccc21`, the outcome in the assay with Escherichia coli [1] was Active. The zone of inhibition at 50 µg/mL in the assay on Escherichia coli [2] and in the assay with Bacillus subtilis was 15 mm each time.
Turning to `COc1ccc2[nH]cc(/C=N/Nc3nc(-c4cc5cc(Br)cc(Br)c5oc4=O)cs3)c2c1`, the outcome with Escherichia coli [1] was Active. Besides, the zone of inhibition at 50 µg/mL in the assay with Escherichia coli [2] and with Bacillus subtilis was 10 mm each time.
In the case of `CCn1cc(/C=N/Nc2nc(-c3cc4ccccc4oc3=O)cs2)c2ccccc21`, in the assay on Escherichia coli [3], the outcome was Active. Further, the zone of inhibition at 50 µg/mL with Escherichia coli [2] and in the assay with Bacillus subtilis was 10 mm throughout.
Turning to `O=c1oc2ccc(Cl)cc2cc1-c1csc(N/N=C/c2c[nH]c3ccccc23)n1`, the result in the assay with Escherichia coli [1] was Active. Also, the zone of inhibition at 50 µg/mL in the assay on Escherichia coli [2] came out at 15 mm; with Bacillus subtilis it was 13 mm.
`O=c1oc2ccc(Br)cc2cc1-c1csc(N/N=C/c2c[nH]c3ccccc23)n1`: the outcome in the assay on Escherichia coli [1] was Active. Also, the results for the zone of inhibition at 50 µg/mL in the assay on Escherichia coli [2] and in the assay with Bacillus subtilis were 13 mm and 15 mm, respectively.
In the same order, the values of `Cc1[nH]c2ccccc2c1/C=N/Nc1nc(-c2cc3cc(Br)cc(Br)c3oc2=O)cs1` are “Active”, 12 mm and 15 mm.
`O=c1oc2c(Br)cc(Br)cc2cc1-c1csc(N/N=C/c2c[nH]c3ccccc23)n1`: in the assay with Escherichia coli [1], the result was Active. Further, the zone of inhibition at 50 µg/mL amounted to 7 mm in the assay on Escherichia coli [2] and 10 mm in the assay with Bacillus subtilis.
As for `COc1ccc2[nH]cc(/C=N/Nc3nc(-c4cc5c(ccc6ccccc65)oc4=O)cs3)c2c1`, in the assay on Escherichia coli [1], the outcome was Active. Moreover, the zone of inhibition at 50 µg/mL with Escherichia coli [2] worked out at 12 mm; with Bacillus subtilis it was 15 mm.
In the same order, the values of `O=c1oc2ccc3ccccc3c2cc1-c1csc(N/N=C/c2c[nH]c3ccccc23)n1` are “Active”, 14 mm and 15 mm.
On the same counts, the results for `COc1ccc2[nH]cc(/C=N/Nc3nc(-c4cc5ccccc5oc4=O)cs3)c2c1` are “Active”, 10 mm and 13 mm.
